± gives the expanded uncertainty stated by the source.
Conditions: Liquid

| Compound | vapor or sublimation pressure (273.15 K) [kPa] | vapor or sublimation pressure (283.15 K) [kPa] | vapor or sublimation pressure (293.15 K) [kPa] | vapor or sublimation pressure (303.15 K) [kPa] | vapor or sublimation pressure (313.15 K) [kPa] | vapor or sublimation pressure (323.15 K) [kPa] |
| --- | --- | --- | --- | --- | --- | --- |
| CC(F)(F)F [1,1,1-trifluoroethane] | 620 ± 4 | 837 ± 5 | 1104 ± 7 | 1432 ± 9 | 1830 ± 11 | 2298 ± 14 |
| CCCC [butane] | 104 ± 2 | 150 ± 2 | 208 ± 2 | 284 ± 3 | 378 ± 3 | 494 ± 4 |
